Results as given in US10071975B2, “Macrocyclic amidinourea derivatives, methods of preparation and uses thereof as chitinase inhibitors” (CYGNET BIOSCIENCES B.V., priority 2013, dated 2018).
Converted amounts (≈) assume the structure as drawn. Like-named read-outs stand apart in the source and are kept apart here.

Tests used:
[1] = tested on: C. glabrata fluconazole resistant strains; experiment: microbe, parasite or virus in culture; type: cell-based, Candida glabrata; conditions: Nakaseomyces glabratus, 24 h
[2] = tested on: C. parapsilosis; experiment: Antimicrobial susceptibility testing (microdilution MIC90), C. parapsilosis strains; type: cell-based, Candida parapsilosis; conditions: Lodderomyces parapsilosis; C. parapsilosis (24 strains tested); 24 h
Description: (§1) Sterile plastic microtitration plates containing flat-bottomed wells were used. The plates contained serial dilution of the antifungal agents with a volume of assay medium of 100 μL/well. Two drug-free medium wells were used as sterility and growth controls. The trays were inoculated with 100 μL/well of the final inoculum, with the exception of sterility control wells. […] The microtitration plates were incubated at 37° C. for 24 h. The minimal inhibitory concentrations (MICs) were determined at 24 h both visually and spectrophotometrically measuring the turbidity at 595 nm with a Varian model 1475 spectrophotometer. Results of biological tests are shown in Table 2, biological data are reported as MIC90 that is the minimum concentration required to inhibit the growth of at least the 90% of the strains tested for each species.

[3] = tested on: C. glabrata; experiment: Antimicrobial susceptibility testing (microdilution MIC90), C. glabrata strains; type: cell-based, Candida glabrata; conditions: Nakaseomyces glabratus; C. glabrata (26 strains tested); 24 h
Description: as §1

[4] = tested on: C. albicans; experiment: Antimicrobial susceptibility testing (microdilution MIC90), C. albicans strains; type: cell-based; conditions: Candida albicans; C. albicans (22 strains tested); 24 h, visually and spectrophotometrically
Description: as §1

[5] = tested on: C. albicans fluconazole resistant strains; experiment: microbe, parasite or virus in culture; type: cell-based; conditions: Candida albicans, 24 h
[6] = tested on: C. kefyr; experiment: Antimicrobial susceptibility testing (microdilution MIC90), C. kefyr strains; type: cell-based, Candida kefyr; conditions: Kluyveromyces marxianus; C. kefyr (10 strains tested); 24 h
Description: as §1

[7] = tested on: C. guilliermondii; experiment: Antimicrobial susceptibility testing (microdilution MIC90), C. guilliermondii strains; type: cell-based, Candida guilliermondii; conditions: Meyerozyma guilliermondii; C. guilliermondii (10 strains tested); 24 h
Description: as §1

[8] = tested on: C. krusei; experiment: Antimicrobial susceptibility testing (microdilution MIC90), C. krusei strains; type: cell-based, Candida krusei; conditions: Pichia kudriavzevii, 24 h
Description: as §1

[9] = tested on: C. tropicalis; experiment: Antimicrobial susceptibility testing (microdilution MIC90), C. tropicalis strains; type: cell-based; conditions: Candida tropicalis; C. tropicalis (11 strains tested); 24 h
Description: as §1

[10] = biological target: chitinase enzyme extracted from Trichoderma viride; experiment: Chitinase inhibition assay (NP-GlcNAc substrate); type: biochemical
Description: Chitinase inhibition assays were conducted against an example of the GH18 family of chitinases, i.e the chitinase enzyme extracted from Trichoderma viride. This enzyme has an high degree of identity compared to chitinase 4 of Candida albicans, and is commercially available from Sigma-Aldrich (catalogue ID: C8241).
The substrate used was the NP-GlcNAc (Sigma-Aldrich, catalogue ID: N9376) dissolved in MES 50 mM at pH6.0; the final concentration was 250 μM. The enzyme was resuspended at 0.11 mg/ml in MES 50 mM at pH 6.0, with a final concentration for the assay of 73 nM diluting with MES 50 mM and BSA 20 μg/ml at pH 6.0. A stock solution of the inhibitors was prepared at 50 mM in DMSO 100%.
The mixture with the inhibitor at various concentrations and the enzyme was prepared directly into the reading plate and left to incubate at room temperature for 20 minutes or three hours. At the end of the incubation times, the substrate was added and the reading was conducted by recording the values up to a maximum time of 10 minutes. The substrate concentration was measured by reading UV absorption at 300 nm (εM^300: 11100), while, the product of hydrolysis were measured at 400 nm (ΔεM^400: 2120). Both IC50 and Ki can be calculated.

[11] = strain DSY284, ERG11 Mutation, mean of three measurements
[12] = strain DSY289, ERG11 Mutation (2)
[13] = strain DSY291, ERG11 Mutation (2)
[14] = strain DSY292, ERG11 Mutation (3)
[15] = strain DSY751, ↑MDR1, ERG11 Mutation
[16] = C. krusei (13 strains tested), read-out: MIC90
[17] = Enz.-inhib. incubation time 20 min
[18] = Enz.-inhib. incubation time 3 h

Row | MIC90 [8, 16] [mg/L] | IC50 [10, 17] [µM] | Ki [10, 17] [µM] | IC50 [10, 18] [µM] | Ki [10, 18] [µM] | SMILES | MIC90 [2] [mg/L] | MIC90 [3] [mg/L] | MIC90 [4] [mg/L] | MIC90 [6] [mg/L] | MIC90 [7] [mg/L] | MIC90 [9] [mg/L] | further results
1 |  |  |  |  |  | OC(Cn1cncn1)(Cn1cncn1)c1ccc(F)cc1F [F, Fluconazole, reference compound] | 0.5 (≈ 1.63 µM) | 16 (≈ 52.2 µM) | 2 (≈ 6.53 µM) | 1 (≈ 3.27 µM) | 4 (≈ 13.1 µM) | 2 (≈ 6.53 µM) | MIC ([1]; strain DSY530, ↑CDR1): 64 mg/L (≈ 209 µM); MIC ([1]; strain DSY754, ↑CDR1): 64 mg/L (≈ 209 µM); MIC ([1]; strain DSY756, ↑CDR1-CDR2-SNQ2): 128 mg/L (≈ 418 µM); MIC ([1]; strain DSY2254, ↑CDR1-CDR2): 128 mg/L (≈ 418 µM); MIC ([1]; strain DSY2271, ↑CDR2): 64 mg/L (≈ 209 µM); MIC [5, 11]: 256 mg/L (≈ 836 µM); MIC [5, 12]: 256 mg/L (≈ 836 µM); MIC [5, 13]: 2 mg/L (≈ 6.53 µM); MIC [5, 14]: 64 mg/L (≈ 209 µM); MIC ([5]; strain DSY296, ERG11 Mutation): 128 mg/L (≈ 418 µM); MIC ([5]; strain DSY348, ERG11 Mutation): 32 mg/L (≈ 104 µM); MIC ([5]; strain DSY732, ↑CDR1-CDR2): 16 mg/L (≈ 52.2 µM); MIC ([5]; strain DSY735, ↑CDR1-CDR2): 64 mg/L (≈ 209 µM); MIC ([5]; strain DSY750, ↑MDR1): 2 mg/L (≈ 6.53 µM); MIC [5, 15]: 256 mg/L (≈ 836 µM); MIC ([5]; strain DSY775, ERG11 Mutation): 128 mg/L (≈ 418 µM); MIC ([5]; strain DSY2323, ↑CDR2-MDR1): 32 mg/L (≈ 104 µM); MIC90 [8]: 256 mg/L (≈ 836 µM)
2 |  | 276 | 81.4 | 108 | 34.8 | C=C(C)CNC(=N)NCCCCCCN1CCCCCCCCNC(=N)NC1=O [Compound 37, 1-[6-(4-imino-2-oxo-1,3,5-triazacyclotridec-1-yl)hexyl]-3-(2-methylprop-2-enyl)guanidine] |  |  |  |  |  |  | 
3 | 128 (≈ 195 µM) |  |  |  |  | C/C=C/CNC(=N)NCCCCCCCCN1CCCCCCOc2ccccc2C(c2cn(-c3ccccc3)nn2)NC(=N)NC1=O (centres unmarked) [Example 21] | 32 (≈ 48.7 µM) | 64 (≈ 97.4 µM) | 32 (≈ 48.7 µM) | 64 (≈ 97.4 µM) | 32 (≈ 48.7 µM) | 64 (≈ 97.4 µM) | 
4 |  | 185 | 59.6 | 157 | 50.8 | C/C=C/CNC(=N)NCCCCCCCCN1CCCCCCCCNC(=N)NC1=O [Compound 35, 1-[(E)-but-2-enyl]-3-[8-(4-imino-2-oxo-1,3,5-triazacyclotridec-1-yl)octyl]guanidine] |  |  |  |  |  |  | 
5 | 32 (≈ 66.7 µM) |  |  |  |  | C/C=C/CNC(=N)NCCCCCCCCN1CCCCCCOC(=O)CCNC(=N)NC1=O [Example 20, 1-[(E)-but-2-enyl]-3-[8-(6-imino-2,8-dioxo-1-oxa-5,7,9-triazacyclopentadec-9-yl)octyl]guanidine] | 8 (≈ 16.7 µM) | 32 (≈ 66.7 µM) | 16 (≈ 33.4 µM) | 16 (≈ 33.4 µM) | 8 (≈ 16.7 µM) | 16 (≈ 33.4 µM) | 
6 |  | 508 | 164 | 140 | 45.3 | CCNC(=N)NCCCCCCN1CCCCCCCCNC(=N)NC1=O [Compound 38, 1-ethyl-3-[6-(4-imino-2-oxo-1,3,5-triazacyclotridec-1-yl)hexyl]guanidine] |  |  |  |  |  |  | 

Row | SMILES | MIC90 [8, 16] [mg/L] | IC50 [10, 17] [µM] | Ki [10, 17] [µM] | IC50 [10, 18] [µM] | Ki [10, 18] [µM] | MIC90 [2] [mg/L] | MIC90 [3] [mg/L] | MIC90 [4] [mg/L] | MIC90 [6] [mg/L] | MIC90 [7] [mg/L] | MIC90 [9] [mg/L] | further results
7 | C/C=C/CNC(=N)NCCCCCCCCN1CCCCOc2ccccc2CNC(=N)NC1=O [Example 16, 1-[(E)-but-2-enyl]-3-[8-(4-imino-6-oxo-12-oxa-3,5,7-triazabicyclo[11.4.0]heptadeca-1(13),14,16-trien-7-yl)octyl]guanidine] | 32 (≈ 65.9 µM) |  |  |  |  | 8 (≈ 16.5 µM) | 64 (≈ 132 µM) | 16 (≈ 32.9 µM) | 4 (≈ 8.24 µM) | 16 (≈ 32.9 µM) | 8 (≈ 16.5 µM) | MIC ([1]; strain DSY530, ↑CDR1): 64 mg/L (≈ 132 µM); MIC ([1]; strain DSY754, ↑CDR1): 64 mg/L (≈ 132 µM); MIC ([1]; strain DSY756, ↑CDR1-CDR2-SNQ2): 64 mg/L (≈ 132 µM); MIC ([1]; strain DSY2254, ↑CDR1-CDR2): 64 mg/L (≈ 132 µM); MIC ([1]; strain DSY2271, ↑CDR2): 64 mg/L (≈ 132 µM); MIC [5, 11]: 16 mg/L (≈ 32.9 µM); MIC [5, 12]: 8 mg/L (≈ 16.5 µM); MIC [5, 13]: 8 mg/L (≈ 16.5 µM); MIC [5, 14]: 16 mg/L (≈ 32.9 µM); MIC ([5]; strain DSY296, ERG11 Mutation): 16 mg/L (≈ 32.9 µM); MIC ([5]; strain DSY348, ERG11 Mutation): 8 mg/L (≈ 16.5 µM); MIC ([5]; strain DSY732, ↑CDR1-CDR2): 8 mg/L (≈ 16.5 µM); MIC ([5]; strain DSY735, ↑CDR1-CDR2): 8 mg/L (≈ 16.5 µM); MIC ([5]; strain DSY750, ↑MDR1): 16 mg/L (≈ 32.9 µM); MIC [5, 15]: 16 mg/L (≈ 32.9 µM); MIC ([5]; strain DSY775, ERG11 Mutation): 16 mg/L (≈ 32.9 µM); MIC ([5]; strain DSY2323, ↑CDR2-MDR1): 8 mg/L (≈ 16.5 µM)
